Results reported in PubChem BioAssay AID652053 (Broad Institute, 2013).

Tested on: Huh7 psiCHECK-miR122 Renilla luciferase reporter, 48 h
Experiment: miR-122 inhibitors in Huh7 reporter cells, dose response, cell-based, Huh7 psiCHECK-miR122, Renilla luciferase, cherry-pick (AID 652053)

COc1ccc(NS(=O)(=O)c2cc(NS(=O)(=O)c3cccs3)ccc2C)cc1
AC40: 4.04 µM

O=C(CCc1ccc(S(=O)(=O)NCCc2ccccc2)cc1)NCc1ccc2c(c1)OCO2
AC40: 8.53 µM

Fc1ccccc1Cn1cc(C(=S)N2CCOCC2)c2ccccc21
AC40: 12.4 µM

CCc1c(C(=O)NC2CCCc3ccccc32)[nH]c(C)c1C(C)=O (stereo not given)
AC40: 9 µM

Cc1ccccc1S(=O)(=O)N1CC[C@@H]2[C@@H](CO)N(C)c3ccc(-c4ccccc4)cc3[C@@H]21
AC40: 4.05 µM

COc1ccccc1NS(=O)(=O)c1cc(NC(=O)Nc2ccccc2)ccc1N1CCCCC1
AC40: 1.37 µM

COc1ccccc1CN(C)C(=O)c1cccc(S(=O)(=O)N2CCCc3ccccc32)c1
AC40: 4.57 µM

C=CCNC(=O)c1ccccc1NC(=O)c1ccc(Cl)c(S(=O)(=O)Nc2cccc(C)c2C)c1
AC40: 0.734 µM

Cc1cc(C)c(S(=O)(=O)Nc2cccc(S(=O)(=O)N3CCOCC3)c2)c(C)c1
AC40: 2.71 µM

COc1ccccc1NS(=O)(=O)c1cc(NC(=O)c2sccc2C)ccc1N1CCCC1
AC40: 1.12 µM

CN1c2ccc(-c3ccccc3)cc2[C@H]2[C@H](CCN2S(=O)(=O)c2ccccc2F)[C@H]1CO
AC40: 3.63 µM

COc1ccc(Cl)cc1S(=O)(=O)NCc1cccnc1
AC40: 14.5 µM

O=S(=O)(NCCc1ccccc1)c1ccc(F)cc1Br
AC40: 1.45 µM

Cc1ccc(NS(=O)(=O)c2ccc3c(c2)NC(=O)CO3)cc1C
AC40: 6.29 µM

S=C(Nc1ccccc1Cl)NC1CCCCCC1
AC40: 17.2 µM

CC(=O)Nc1ccc(S(=O)(=O)Nc2cccc(-c3nc4ccccc4o3)c2)cc1
AC40: 6.93 µM

COc1ccc(OC)c(C(c2nnnn2C2CCCC2)N2CCN(c3ccccc3F)CC2)c1 (stereo not given)
AC40: 12.3 µM

O=S(=O)(NCCc1ccncc1)c1cc(Br)ccc1F
AC40: 2.66 µM

Cc1ccccc1NS(=O)(=O)c1cc(C(=O)Nc2cccnc2)ccc1C
AC40: 5.17 µM

CCOc1ccccc1C(=O)N1CCN(c2cccc(Cl)c2)CC1
AC40: 11.6 µM

C[C@H]1CN([C@@H](C)CO)C(=O)Cc2cc(NC(=O)Nc3ccc(C(F)(F)F)cc3)ccc2O[C@H]1CN(C)S(=O)(=O)c1ccc(F)cc1
AC40: 14 µM

C[C@@H]1CN([C@H](C)CO)C(=O)Cc2cc(NS(=O)(=O)c3ccc(Cl)cc3)ccc2O[C@@H]1CN(C)C(=O)Nc1ccc(C(F)(F)F)cc1
AC40: 6.38 µM

COc1ccc(S(=O)(=O)Nc2ccc(S(=O)(=O)N3CCCCC3)cc2)cc1C
AC40: 2.44 µM

COc1cc(CN(C)C(=O)C(=O)c2c[nH]c3ccccc23)ccc1O
AC40: 6.67 µM

O=C(Nc1cc(S(=O)(=O)Nc2ccccc2F)ccc1Cl)c1ccc(F)cc1F
AC40: 7.6 µM

O=S(=O)(NCCOCC(F)(F)C(F)F)c1ccc2oc3ccccc3c2c1
AC40: 15.3 µM

COc1ccc(S(=O)(=O)Nc2cc(C)c(O)c(S(=O)(=O)c3ccccc3)c2)cc1
AC40: 29.6 µM

CC1CCCCC1NC(=S)Nc1ccc(SC(F)F)cc1 (stereo not given)
AC40: 4.15 µM

COc1ccc(C)cc1S(=O)(=O)Nc1cc2c3c(c1)CCC(=O)N3CCC2
AC40: 1.86 µM

CC(C)(C)C(=O)Nc1cc(S(=O)(=O)Nc2ccc(Cl)cc2)ccc1Cl
AC40: 2.74 µM

CCNS(=O)(=O)c1cc(Br)ccc1OC
AC40: 3.4 µM

O=C(CN1CCOCC1)Nc1ccc(Br)cc1C(=O)c1ccccc1
AC40: 1.64 µM

Cc1cccc(S(=O)(=O)NC2CCCCCCC2)c1
AC40: 3.27 µM

CC(C)c1ccc(NC(=O)Cc2cn(C)c3ccccc23)cc1
AC40: 11.9 µM

Cc1cc(C(=O)Nc2cccc3c2O[C@@H](CN(C)CC2CCCCC2)[C@@H](C)CN([C@@H](C)CO)C3=O)n(C)n1
AC40: 5.85 µM

CCOc1cc(C)c(Cl)cc1S(=O)(=O)NCc1ccco1
AC40: 1.79 µM

CCOC(=O)c1c(C)[nH]c(C)c1S(=O)(=O)NCCc1ccco1
AC40: 2.96 µM

C[C@@H]1CN([C@H](C)CO)C(=O)c2cc(N(C)C)ccc2O[C@@H]1CN(C)S(=O)(=O)c1ccc(Cl)cc1
AC40: 6.57 µM

C[C@H](CO)N1C[C@H](C)[C@@H](CN(C)Cc2ccc3c(c2)OCO3)Oc2c(NC(=O)Nc3ccccc3)cccc2C1=O
AC40: 8.95 µM

Cc1ccc(CN2CCSc3ccc(C(=O)NCc4cccnc4)cc32)cc1
AC40: 10.6 µM

COc1ccccc1CNS(=O)(=O)c1ccc(-c2cc(C)no2)cc1
AC40: 10.8 µM

Cc1ccc(NS(=O)(=O)c2cc(C(=O)N3CCN(C)CC3)ccc2C)cc1C
AC40: 25.1 µM

Cc1ccc(S(=O)(=O)Nc2ccc3c(c2)CCC3)cc1
AC40: 6.54 µM

C[C@@H]1CN([C@H](C)CO)C(=O)c2cccc(NC(=O)c3ccc(-c4nccs4)cc3)c2O[C@@H]1CN(C)Cc1ccc(C(=O)Nc2ccccc2N)cc1
AC40: 6.24 µM

O=C(C(=O)N(Cc1ccccc1)Cc1ccccc1)c1c(-c2ccccc2)[nH]c2ccccc12
AC40: 1 µM

O=S(=O)(/N=C(/Nc1ccc(Cl)c(S(=O)(=O)N2CCOCC2)c1)c1ccc(F)cc1)c1ccccc1
AC40: 0.864 µM

COc1ccccc1CNC(=O)C[C@H]1CC[C@H]2[C@@H](COc3ccc(NS(=O)(=O)c4ccc(C)cc4)cc3C(=O)N2C)O1
AC40: 21.5 µM

O=S(=O)(Nc1ccc(N2CCOCC2)cc1)c1cc(Cl)ccc1Cl
AC40: 26.6 µM

CC(C)(C)c1cc(C(=O)NNc2cccc(Cl)c2)n(Cc2ccccc2)n1
AC40: 4.19 µM

COc1ccc(Cl)cc1NS(=O)(=O)c1cc(Cl)ccc1OC
AC40: 4.45 µM

O=C(NNS(=O)(=O)c1ccc(Cl)cc1)c1cccs1
AC40: 16.6 µM

COc1ccc(OC)c(S(=O)(=O)Nc2cc3c4c(c2)CCC(=O)N4CCC3)c1
AC40: 0.84 µM

CC(C)CNS(=O)(=O)c1cc2c3c(c1)CCC(=O)N3CCC2
AC40: 9.58 µM

COc1ccc(NS(=O)(=O)c2cc(C)ccc2OC)cc1OC
AC40: 3.76 µM

COc1ccc(N(CC(=O)Nc2cc(C)on2)S(=O)(=O)c2cc(C)ccc2C)cc1
AC40: 5.67 µM

COc1ccc(NS(=O)(=O)c2cc(C)ccc2NC(=O)c2cc(C)oc2C)cc1
AC40: 3.23 µM

CC1CC(C)CN(S(=O)(=O)c2ccc(NC(=O)c3ccc(=O)[nH]c3)cc2)C1 (stereo not given)
AC40: 12 µM

O=C(c1ccccc1)C(O)(Cc1ccccc1)c1ccccc1 (stereo not given)
AC40: 8.14 µM

CCOc1cc(S(=O)(=O)NCCc2ccccc2C)c(OCC)cc1-n1cnnn1
AC40: 2.52 µM

O=C1COc2ccc(S(=O)(=O)Nc3ccc(F)cc3)cc2N1
AC40: 5.23 µM

CC(C)C#Cc1ccc2c(c1)O[C@H](CN(C)C(=O)Nc1ccccc1)[C@@H](C)CN([C@@H](C)CO)S2(=O)=O
AC40: 2.08 µM

COc1cc(S(=O)(=O)NCc2cccnc2)c(OC)cc1Br
AC40: 4.72 µM

COc1ccc(C2CCCCCN2Cc2nc3ccccc3c(=O)n2CC(N)=O)cc1 (stereo not given)
AC40: 9.73 µM

Cc1cc(F)ccc1C(O)c1ncc(-c2ccccc2F)[nH]1 (stereo not given)
AC40: 5.29 µM

O=S(=O)(c1ccc(F)cc1)N1C[C@H]2[C@@H](c3ccccc31)[C@@H](CO)N2Cc1ccc2c(c1)OCO2
AC40: 4.82 µM

COc1cccc(N2CCN(C(=O)c3oc4ccccc4c3NC(=O)Cc3ccc(OC)c(OC)c3)CC2)c1
AC40: 1.62 µM

Cc1ccc(S(=O)(=O)Nc2cccc(-c3cn4ccsc4n3)c2)cc1
AC40: 1.81 µM

O=C(Nc1ccc2c(c1)CCC2)c1cc(S(=O)(=O)Nc2ccc(F)cc2)c(Cl)cc1Cl
AC40: 4.1 µM

Cc1ccc(C)c(S(=O)(=O)NC2CCS(=O)(=O)C2)c1 (stereo not given)
AC40: 8.66 µM

O=S(=O)(NCC1CCCO1)c1ccc(Oc2ccccc2)cc1 (stereo not given)
AC40: 5.86 µM

C[C@H](CO)N1C[C@H](C)[C@@H](CN(C)Cc2ccc(Oc3ccccc3)cc2)Oc2c(NC(=O)C3CCOCC3)cccc2C1=O
AC40: 1.31 µM

CCCCCCNS(=O)(=O)c1ccc(OC)c(OC)c1
AC40: 4.67 µM

Cc1ccc(S(=O)(=O)Nc2ccc3c4c(cccc24)CC3)c(C)c1
AC40: 6.8 µM

COC(=O)c1c(NC(=O)c2ccc(C)c(S(=O)(=O)Nc3ccccc3C)c2)sc2c1CCCC2
AC40: < 0.26 µM

COc1ccc(NS(=O)(=O)c2ccc3ccccc3c2)c2ncccc12
AC40: 5.19 µM

CC(=O)Nc1ccc(S(=O)(=O)Nc2ccc3c(c2)n(C)c(=O)n3C)c(C)c1
AC40: 3.94 µM

COC(=O)c1ccc(Nc2nnc(-c3ccc(C)c(S(=O)(=O)NCC4CCCO4)c3)c3ccccc23)cc1 (stereo not given)
AC40: 0.761 µM

Cc1ccccc1NS(=O)(=O)c1cc(C(=O)N2CCc3ccccc3C2)ccc1C
AC40: 20.4 µM

CCN1C(=O)c2cccc3c(S(=O)(=O)N(C(=O)c4cccnc4)c4ccc(OC)cc4)ccc1c23
AC40: 1.21 µM

CCCCNS(=O)(=O)c1ccc(NC(=O)c2cccs2)cc1
AC40: 1.09 µM

O=S(=O)(c1ccccc1F)N1CC[C@@H]2[C@@H](CO)Nc3ccc(-c4ccc(F)cc4)cc3[C@@H]21
AC40: 5.7 µM

Cc1cc(S(=O)(=O)NC2CCCCC2)c(C)s1
AC40: 1.44 µM

Cc1cc(S(=O)(=O)Nc2cccc(Cl)c2)c(C)s1
AC40: 0.486 µM

CCCNC(=O)C[C@@H]1CC[C@H]2[C@H](COc3ccc(NC(=O)Nc4ccccc4F)cc3C(=O)N2C)O1
AC40: 2.53 µM

CC(C)(C)NS(=O)(=O)c1ccc(NC(=S)NC(=O)C2CC2)cc1
AC40: 1.86 µM

O=C(Nc1cccc(S(=O)(=O)Nc2ccc(Cl)cc2)c1)c1ccccn1
AC40: 1.8 µM

COc1ccc(F)cc1S(=O)(=O)NC1CCCCCC1
AC40: 5.11 µM

O=S(=O)(NCC1CCCO1)c1cccc(C(F)(F)F)c1 (stereo not given)
AC40: 22.2 µM

Cc1cc(C)c(S(=O)(=O)NC2CC3CCC2C3)c(C)c1 (stereo not given)
AC40: 0.6 µM

Cc1ccc(S(=O)(=O)Nc2ccc3c(c2)CC(=O)N([C@@H](C)CO)C[C@@H](C)[C@H](CN(C)Cc2ccc(C(=O)Nc4ccccc4N)cc2)O3)cc1
AC40: 32.4 µM

Cc1cccc(NS(=O)(=O)c2ccc(C)c(C(=O)OCC(=O)Nc3cc(C)on3)c2)c1
AC40: 4.46 µM

C[C@H](CO)N1C[C@H](C)[C@@H](CN(C)Cc2ccccc2)Oc2c(NS(=O)(=O)c3ccccc3)cccc2C1=O
AC40: 3.64 µM

CC(=O)c1ccc(NS(=O)(=O)c2c(C)cc(C)cc2C)cc1
AC40: 1.82 µM

COCC#Cc1ccc2c(c1)O[C@H](CN(C)Cc1ccc3c(c1)OCO3)[C@@H](C)CN([C@@H](C)CO)S2(=O)=O
AC40: 13.8 µM

C[C@@H]1CN([C@@H](C)CO)C(=O)c2cccc(NC(=O)C3CCCCC3)c2O[C@@H]1CN(C)Cc1ccc(C(=O)Nc2ccccc2N)cc1
AC40: 6.92 µM

C[C@H](CO)N1C[C@H](C)[C@@H](CN(C)CC2CCCCC2)Oc2c(NC(=O)C3CC3)cccc2C1=O
AC40: 0.602 µM

COc1ccccc1CN1[C@H](CO)[C@@H]2c3ccccc3N(C(=O)c3ccc(F)cc3)C[C@@H]21
AC40: 30 µM

C[C@@H]1CN([C@@H](C)CO)C(=O)c2cc(NC(=O)Nc3ccccc3)ccc2O[C@@H]1CN(C)Cc1ccc(C(=O)Nc2ccccc2N)cc1
AC40: 13.4 µM

COc1ccc(S(=O)(=O)Nc2cc3c4c(c2)CCC(=O)N4CCC3)cc1C
AC40: 6.67 µM

CCc1ccc(-c2cc(C)no2)cc1S(=O)(=O)NC(C)Cc1ccco1 (stereo not given)
AC40: < 0.26 µM
